Test results taken from patent US20260226068A1, “IMIDAZOTRIAZINE IL-17A MODULATORS AND USES THEREOF” (DICE ALPHA, INC., priority 2023, published 2026).

Tests used:
IL-17A/A = biological target: T1, IL-17A/A (Homo sapiens, UniProt Q16552); assay: IL-17A/A HEK-Blue cell assay (SEAP reporter); type: cell-based; settings: HEK-Blue IL-17A reporter cells, IL17A/A 5 ng/mL, 20 hours, SEAP read at A630; read-out: HEK-Blue IL17AA (IC50 for IL-17A/A inhibition)
T1 construct: purchased Genscript Z03228
T1 sequence (Q16552 24-155): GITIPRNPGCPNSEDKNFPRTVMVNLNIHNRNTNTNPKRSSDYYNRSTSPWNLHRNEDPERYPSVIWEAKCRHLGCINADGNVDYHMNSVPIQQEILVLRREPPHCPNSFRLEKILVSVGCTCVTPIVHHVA

[1] = Mouse oral bioavailability; type: in vivo; settings: C57BL/6J mice, PO 10 mg/kg vs IV 1 mg/kg, plasma AUC, read-out: % F (Mouse), oral bioavailability
Procedure: The test compound is administered to C57BL/6J mice intravenously (IV) at 1 mg/kg or orally (PO) at 10 mg/kg using vehicles composed of 10% DMA, 70% Polyethylene glycol 400, and 20% purified water; or 10% DMA, 50% Polyethylene glycol 400, and 40% purified water. Serial blood collections occur at 0.08, 0.25, 0.5, 1, 2, 4, 8 and 24 h post IV bolus dose administration, and 0.25, 0.5, 1, 2, 4, 8 and 24 h post oral dose administration. Blood samples are treated with EDTA anticoagulant. Plasma is isolated by centrifugation and stored at −70° C. until analysis by LC-MS/MS. Test article concentration is determined in plasma and uploaded into the Phoenix WinNonlin system where noncompartmental analysis is used to calculate Area Under the Curve (AUC) for both IV and PO arms. Bioavailability (% F) is calculated via the following equation,
% F=(AUCPO×DoseIV)/(AUCIV×DosePO)×100

IL-17A/F = biological target: T2, IL-17A/F (Homo sapiens, UniProt Q16552+Q96PD4); assay: IL-17A/F HEK-Blue cell assay (SEAP reporter); type: cell-based; settings: HEK-Blue IL-17A reporter cells, IL17A/F 5 ng/mL, 20 hours, SEAP read at A630; read-out: HEK-Blue IL17AF (IC50 for IL-17A/F inhibition)
T2 construct: purchased R&D Systems
T2 sequence (Q16552 24-155): T1 sequence (Q16552 24-155)
T2 sequence (Q96PD4 31-163): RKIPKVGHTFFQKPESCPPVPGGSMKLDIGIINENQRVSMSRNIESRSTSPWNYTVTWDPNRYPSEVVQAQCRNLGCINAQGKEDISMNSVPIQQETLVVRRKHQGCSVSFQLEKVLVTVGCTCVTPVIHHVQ

Row | Compound | IC50 (IL-17A/A) [nM] | bioavailability [1] [%] | IC50 (IL-17A/F) [nM]
1 | CCn1nccc1C(=O)N[C@H](c1cn2nc(C[C@H]3C[C@@H](C(F)(F)F)CNC3=O)c(C3CCCOC3)nc2n1)[C@H]1CCCC(F)(F)C1 (single isomer, unassigned) [Compound 70] | < 100 | 45 | < 100
2 | O=C(N[C@H](c1cn2nc(CC3C[C@@H](C(F)(F)F)CNC3=O)c(N3CCOCC3)nc2n1)C1CCC(F)(F)CC1)c1nonc1C1CC1 (some centres unmarked) [Compound 56] | < 100 | 87 | > 1000
3 | CCn1nccc1C(=O)N[C@H](c1cn2nc(CC3C[C@@H](C(F)(F)F)CNC3=O)c(N3CCO[C@H](C)C3)nc2n1)[C@@H]1CCCC(F)(F)C1 (single isomer, unassigned) [Compound 122] | < 100 | 51 | < 100
4 | CCn1nccc1C(=O)N[C@H](c1cn2nc(C[C@H]3C[C@@H](C(F)(F)F)CNC3=O)c(C3CCCOC3)nc2n1)[C@@H]1CCCC(F)(F)C1 (single isomer, unassigned) [Compound 69] | < 100 | 40 | 100 to 1000
5 | CCn1nccc1C(=O)N[C@H](c1cn2nc(C[C@H]3C[C@@H](C(F)(F)F)CNC3=O)c(C3CCOCC3)nc2n1)C1CCC(F)(F)CC1 [Compound 88, N-((1S)-(4,4-difluorocyclohexyl)(2-(((3R,5R)-2-oxo-5-(trifluoromethyl)piperidin-3-yl)methyl)-3-(tetrahydro-2H-pyran-4-yl)imidazo[1,2-b][1,2,4]triazin-6-yl)methyl)-1-ethyl-1H-pyrazole-5-carboxamide] | < 100 | 69 | 100 to 1000
6 | Cn1nccc1C(=O)N[C@H](c1cn2nc(CC3C[C@@H](C(F)(F)F)CNC3=O)cnc2n1)C1CCC(F)(F)CC1 (stereo partly drawn) [Compound 3, N—((S)-(4,4-difluorocyclohexyl)(2-(((5R)-2-oxo-5-(trifluoromethyl)piperidin-3-yl)methyl)imidazo[1,2-b][1,2,4]triazin-6-yl)methyl)-1-methyl-1H-pyrazole-5-carboxamide] | 100 to 1000 | – | > 1000
7 | CCn1nccc1C(=O)N[C@H](c1cn2nc(CC3C[C@@H](C(F)(F)F)CNC3=O)cnc2n1)C1CCC(F)(F)CC1 (single isomer, unassigned) [Compound 5] | 100 to 1000 | – | > 1000
8 | O=C(N[C@H](c1cn2nc(CC3C[C@@H](C(F)(F)F)CNC3=O)c(N3CCOCC3)nc2n1)C1CCC(F)(F)CC1)c1conc1C1CC1(F)F (single isomer, unassigned) [Compound 114] | < 100 | – | > 1000

Next, values leading:

Row | IC50 (IL-17A/A) [nM] | bioavailability [1] [%] | IC50 (IL-17A/F) [nM] | Compound
9 | < 100 | 91 | > 1000 | Cc1nonc1C(=O)N[C@H](c1cn2nc(C[C@H]3C[C@@H](C(F)(F)F)CNC3=O)c(C3CCOCC3)nc2n1)C1CCC(F)(F)CC1 [Compound 148, N-((1S)-(4,4-difluorocyclohexyl)(2-(((3R,5R)-2-oxo-5-(trifluoromethyl)piperidin-3-yl)methyl)-3-(tetrahydro-2H-pyran-4-yl)imidazo[1,2-b][1,2,4]triazin-6-yl)methyl)-4-methyl-1,2,5-oxadiazole-3-carboxamide]
10 | < 100 | 43 | 100 to 1000 | CCn1nccc1C(=O)N[C@H](c1cn2nc(C[C@H]3C[C@@H](C(F)(F)F)CNC3=O)c(C3CC4CCC(C3)O4)nc2n1)C1CCC(F)(F)CC1 (stereo partly drawn) [Compound 153, N-((1S)-(3-(8-oxabicyclo[3.2.1]octan-3-yl)-2-(((3R,5R)-2-oxo-5-(trifluoromethyl)piperidin-3-yl)methyl)imidazo[1,2-b][1,2,4]triazin-6-yl)(4,4-difluorocyclohexyl)methyl)-1-ethyl-1H-pyrazole-5-carboxamide]
11 | < 100 | 27 | 100 to 1000 | CCn1nccc1C(=O)N[C@H](c1cn2nc(C[C@H]3C[C@@H](C(F)(F)F)CNC3=O)c(C3CCOC3)nc2n1)[C@H]1CCCC(F)(F)C1 (single isomer, unassigned) [Compound 204]
12 | < 100 | 83 | > 1000 | CC(C)n1ncnc1C(=O)N[C@H](c1cn2nc(C[C@H]3C[C@@H](C(F)(F)F)CNC3=O)c(C3CCOCC3)nc2n1)C1CCC(F)(F)CC1 [Compound 229]
13 | < 100 | – | 100 to 1000 | CCn1nccc1C(=O)N[C@H](c1cn2nc(C[C@H]3C[C@@H](C(F)(F)F)CNC3=O)c(CN(C)CC(F)(F)F)nc2n1)C1CCC(F)(F)CC1 [Compound 335, N—((S)-(4,4-difluorocyclohexyl)(3-((methyl(2,2,2-trifluoroethyl)amino)methyl)-2-(((3R,5R)-2-oxo-5-(trifluoromethyl)piperidin-3-yl)methyl)imidazo[1,2-b][1,2,4]triazin-6-yl)methyl)-1-ethyl-1H-pyrazole-5-carboxamide]
14 | < 100 | – | 100 to 1000 | O=C(N[C@H](c1cn2nc(C[C@H]3C[C@@H](C(F)(F)F)CNC3=O)c(C3CCOCC3)nc2n1)C1CCC(F)(F)CC1)c1ccnn1CCF [Compound 188, N-((1S)-(4,4-difluorocyclohexyl)(2-(((3R,5R)-2-oxo-5-(trifluoromethyl)piperidin-3-yl)methyl)-3-(tetrahydro-2H-pyran-4-yl)imidazo[1,2-b][1,2,4]triazin-6-yl)methyl)-1-(2-fluoroethyl)-1H-pyrazole-5-carboxamide]
15 | < 100 | – | > 1000 | CCn1nccc1C(=O)N[C@H](c1cn2nc(C[C@H]3C[C@@H](C(F)(F)F)CNC3=O)c(CN3CCC(F)(F)C3)nc2n1)C1CCC(F)(F)CC1 [Compound 333, N—((S)-(4,4-difluorocyclohexyl)(3-((3,3-difluoropyrrolidin-1-yl)methyl)-2-(((3R,5R)-2-oxo-5-(trifluoromethyl)piperidin-3-yl)methyl)imidazo[1,2-b][1,2,4]triazin-6-yl)methyl)-1-ethyl-1H-pyrazole-5-carboxamide]
16 | < 100 | – | 100 to 1000 | CCn1nccc1C(=O)N[C@H](c1cn2nc(C[C@H]3C[C@@H](C(F)(F)F)CNC3=O)c([C@H]3CCC(C)(C)OC3)nc2n1)C1CCC(F)(F)CC1 (single isomer, unassigned) [Compound 258]
17 | < 100 | – | 100 to 1000 | CCn1nccc1C(=O)N[C@H](c1cn2nc(C[C@H]3C[C@@H](C(F)(F)F)CNC3=O)c(N3CC4CCC(C3)N4C)nc2n1)C1CCC(F)(F)CC1 [Compound 361, N-((1S)-(4,4-difluorocyclohexyl)(3-(8-methyl-3,8-diazabicyclo[3.2.1]octan-3-yl)-2-(((3R,5R)-2-oxo-5-(trifluoromethyl)piperidin-3-yl)methyl)imidazo[1,2-b][1,2,4]triazin-6-yl)methyl)-1-ethyl-1H-pyrazole-5-carboxamide]
18 | 100 to 1000 | – | 100 to 1000 | CCn1nccc1C(=O)N[C@H](c1cn2nc(C[C@H]3C[C@@H](C(F)(F)F)CNC3=O)c(N3CC4CC(C3)N4C)nc2n1)C1CCC(F)(F)CC1 [Compound 360, N-((1S)-(4,4-difluorocyclohexyl)(3-(6-methyl-3,6-diazabicyclo[3.1.1]heptan-3-yl)-2-(((3R,5R)-2-oxo-5-(trifluoromethyl)piperidin-3-yl)methyl)imidazo[1,2-b][1,2,4]triazin-6-yl)methyl)-1-ethyl-1H-pyrazole-5-carboxamide]
19 | < 100 | – | > 1000 | CCn1nccc1C(=O)N[C@H](c1cn2nc(C[C@@H]3C(=O)NC[C@H]4C[C@H]43)c(C3CCOCC3)nc2n1)C1CCC(F)(F)CC1 [Compound 428]
